Legend:
Type in all cases: biochemical
CSN5 = target: T1, CSN5 (Homo sapiens, UniProt Q92905); assay: CSN5 activity assay (CSN deneddylation, fluorescence polarization); conditions: JAMM domain protease; means±s.d.
T1 construct: made in house; host or cells: Sf21 insect cells, co-infection of separate baculoviruses
Protocol: Unlike the majority of proteases, it is not active as an individual subunit or as an isolated catalytic domain. […] For the identification of CSN inhibitors, we therefore conducted a high-throughput screening campaign using a biochemical assay with recombinant CSN and a fluorescence-labelled and NEDD8-modified CRL substrate[30][40] (PT22-NEDD8-SCF^Skp2; Supplementary Table 1).
The potency of CSN5 inhibitors was determined in a CSN activity assay using changes in fluorescence polarization as the readout. Reactions were carried out at room temperature in 384-well plates. […] The effect of compound on enzymatic activity was determined from the linear part of the progression curves by an end-point measurement of the fluorescence polarization at 590 nm after excitation at 540 nm using a PHERAstar plate reader (BMG LABTECH GmbH). IC50 values were calculated from the plot of percentage of inhibition versus inhibitor concentration using the non-linear regression analysis software Origin 7.5SR6 (OriginLab Corp.).

Human AMSHLP = target: T2, Human AMSHLP (Homo sapiens, UniProt Q96FJ0); assay: Selectivity assay AMSHLP (ubiquitin-rhodamine110-glycine substrate); conditions: JAMM domain protease
T2 construct: made in house; host or cells: E. coli
T2 sequence (Q96FJ0 1-436): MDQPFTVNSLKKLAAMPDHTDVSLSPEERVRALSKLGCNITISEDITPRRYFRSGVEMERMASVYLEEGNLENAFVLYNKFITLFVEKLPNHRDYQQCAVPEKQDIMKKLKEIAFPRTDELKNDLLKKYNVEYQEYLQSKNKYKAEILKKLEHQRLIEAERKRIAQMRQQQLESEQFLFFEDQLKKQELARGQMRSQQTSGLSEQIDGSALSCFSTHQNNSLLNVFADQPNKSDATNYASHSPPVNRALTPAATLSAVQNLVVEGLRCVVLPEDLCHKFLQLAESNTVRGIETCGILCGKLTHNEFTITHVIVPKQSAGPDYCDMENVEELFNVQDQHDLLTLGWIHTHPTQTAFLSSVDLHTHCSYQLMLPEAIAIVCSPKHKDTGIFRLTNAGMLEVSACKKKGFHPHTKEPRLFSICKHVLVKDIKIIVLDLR
Protocol: (§1) All biochemical assays were performed at room temperature in 384-well plates in a total volume of 25.25 μl per well. Test compounds were dissolved in 90% (v/v) DMSO/water. For the assays, 250 nl of compound solution was added per well, followed by addition of 12.5 μl protease solution. After 70 min of pre-incubation at room temperature, the reactions were started by addition of 12.5 μl substrate solution and followed either by measuring fluorescence intensity (rhodamine 110-based substrates) or by fluorescence lifetime (PT14-based substrates). The effect of compound on enzymatic activity was obtained from the linear part of the progress curves and determined after 1 h (t=60 min). The final compound concentrations ranged from 100 μM to 1 nM.
Human AMSHLP. Enzyme was expressed in and purified from E. coli; substrate: ubiquitin-rhodamine110-glycine was purchased from emp Biotech GmbH (Berlin, Germany; product number AS 09/12-A4); enzyme concentration: 4 nM; substrate concentration: 200 nM; assay buffer: 100 mM Tris/HCl at pH 7.5, 10 mM CaCl2, 100 mM NaCl, 10 μM ZnCl2, 0.005% (v/v) BRIJ 35 and 5 mM dithioerythritol (DTE).

human MMP2 = target: T3, human MMP2 (Homo sapiens, UniProt P08253); assay: Selectivity assay MMP2
T3 construct: human MMP2 (Uniprot P08253), amino acids 1–660; made in house; host or cells: insect cells (baculovirus)
T3 sequence (P08253 30-660): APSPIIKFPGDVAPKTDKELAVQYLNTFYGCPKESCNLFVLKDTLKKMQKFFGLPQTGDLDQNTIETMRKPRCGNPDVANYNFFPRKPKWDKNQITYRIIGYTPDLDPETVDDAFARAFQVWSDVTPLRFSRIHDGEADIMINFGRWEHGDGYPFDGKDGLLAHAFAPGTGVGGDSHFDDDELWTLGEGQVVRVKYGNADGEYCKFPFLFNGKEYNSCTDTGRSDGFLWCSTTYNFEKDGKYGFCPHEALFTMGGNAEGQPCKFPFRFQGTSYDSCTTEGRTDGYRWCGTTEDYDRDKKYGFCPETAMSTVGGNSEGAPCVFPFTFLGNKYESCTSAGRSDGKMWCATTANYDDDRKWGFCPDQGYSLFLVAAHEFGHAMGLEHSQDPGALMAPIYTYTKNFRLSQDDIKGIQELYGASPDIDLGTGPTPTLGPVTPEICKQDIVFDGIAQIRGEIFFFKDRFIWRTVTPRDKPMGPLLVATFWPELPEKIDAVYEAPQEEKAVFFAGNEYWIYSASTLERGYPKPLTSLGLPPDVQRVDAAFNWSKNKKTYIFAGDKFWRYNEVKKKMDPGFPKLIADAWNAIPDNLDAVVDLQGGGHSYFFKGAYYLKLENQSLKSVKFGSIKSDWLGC
Protocol: as §1
(§2) Matrix metalloproteinases. Human MMP1 (Uniprot P03956), amino acids 1–469, expressed in and purified from stable transfected C127 cells; human MMP2 (Uniprot P08253), amino acids 1–660, expressed in and purified from insect cells (baculovirus expression system); human MMP8 (Uniprot P22894), amino acids 100–262, expressed in and purified from E. coli; human MMP9 (Uniprot P14780), amino acids 1–707, expressed in and purified from stable transfected 293 cells; human MMP12 (Uniprot P39900), amino acids 101–268, expressed in and purified from E. coli; human MMP13 (Uniprot P45452), amino acids 103–274, expressed in and purified from E. coli; human MMP14 (Uniprot P50281), amino acids 112–284, expressed in and purified from E. coli; human ADAM17 (Uniprot P78536), amino acids 1–670, expressed in and purified from insect cells (baculovirus expression system); substrate: Ac-C(PT14)-[…]-NH2 purchased from Biosyntan (product number 8069); enzyme concentrations: 3 nM (MMP1), 1 nM (MMP2), 3 nM (MMP8), 0.1 nM (MMP9), 0.5 nM (MMP12), 0.13 nM (MMP13), 0.005 nM (MMP14), 30 nM (ADAM17); substrate concentration: 0.8 μM; assay buffer: 100 mM Tris, pH 7.4, 100 mM NaCl, 10 mM CaCl2, 10 μM ZnCl2, 0.075% (v/v) Brij35.

human MMP8 = target: T4, human MMP8 (Homo sapiens, UniProt P22894); assay: Selectivity assay MMP8
T4 construct: human MMP8 (Uniprot P22894), amino acids 100–262; made in house; host or cells: E. coli
T4 sequence (P22894 100-262): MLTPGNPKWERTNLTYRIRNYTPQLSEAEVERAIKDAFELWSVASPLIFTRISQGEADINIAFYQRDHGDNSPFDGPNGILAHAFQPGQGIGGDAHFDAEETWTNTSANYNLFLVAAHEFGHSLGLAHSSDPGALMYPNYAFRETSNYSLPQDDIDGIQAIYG
Protocol: as §1, §2

human MMP9 = target: T5, human MMP9 (Homo sapiens, UniProt P14780); assay: Selectivity assay MMP9
T5 construct: human MMP9 (Uniprot P14780), amino acids 1–707; made in house; host or cells: stably transfected 293 cells
T5 sequence (P14780 20-707): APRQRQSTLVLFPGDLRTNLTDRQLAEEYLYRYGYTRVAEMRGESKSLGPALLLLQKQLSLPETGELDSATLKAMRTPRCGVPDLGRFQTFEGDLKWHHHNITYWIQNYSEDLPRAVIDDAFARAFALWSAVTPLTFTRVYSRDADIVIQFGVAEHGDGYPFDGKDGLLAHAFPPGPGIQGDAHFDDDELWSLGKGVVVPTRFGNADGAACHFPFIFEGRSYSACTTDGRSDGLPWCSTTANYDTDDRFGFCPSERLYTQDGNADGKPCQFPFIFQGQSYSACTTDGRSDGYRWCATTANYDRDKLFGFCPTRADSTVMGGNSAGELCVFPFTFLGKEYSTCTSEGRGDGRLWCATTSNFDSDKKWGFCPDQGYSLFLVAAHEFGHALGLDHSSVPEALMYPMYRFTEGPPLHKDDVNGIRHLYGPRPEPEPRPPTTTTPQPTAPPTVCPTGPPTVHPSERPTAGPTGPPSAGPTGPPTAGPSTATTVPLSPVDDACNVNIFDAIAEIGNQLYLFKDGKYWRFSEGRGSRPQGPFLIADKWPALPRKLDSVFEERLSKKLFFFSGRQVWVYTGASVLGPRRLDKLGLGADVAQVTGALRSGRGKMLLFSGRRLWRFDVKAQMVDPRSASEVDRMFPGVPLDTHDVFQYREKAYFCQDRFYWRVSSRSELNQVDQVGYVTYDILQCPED
Protocol: as §1, §2

human MMP12 = target: T6, human MMP12 (Homo sapiens, UniProt P39900); assay: Selectivity assay MMP12
T6 construct: human MMP12 (Uniprot P39900), amino acids 101–268; made in house; host or cells: E. coli
T6 sequence (P39900 101-268): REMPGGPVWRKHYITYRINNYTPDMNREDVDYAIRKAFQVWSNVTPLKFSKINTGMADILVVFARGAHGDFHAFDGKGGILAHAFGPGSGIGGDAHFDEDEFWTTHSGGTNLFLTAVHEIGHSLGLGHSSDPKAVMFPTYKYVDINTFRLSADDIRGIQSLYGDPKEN
Protocol: as §1, §2

human MMP13 = target: T7, human MMP13 (Homo sapiens, UniProt P45452); assay: Selectivity assay MMP13
T7 construct: human MMP13 (Uniprot P45452), amino acids 103–274; made in house; host or cells: E. coli
Protocol: as §1, §2

human MMP14 = target: T8, human MMP14 (Homo sapiens, UniProt P50281); assay: Selectivity assay MMP14
T8 construct: human MMP14 (Uniprot P50281), amino acids 112–284; made in house; host or cells: E. coli
Protocol: as §1, §2

human ADAM17 = target: T9, human ADAM17 (Homo sapiens, UniProt P78536); assay: Selectivity assay ADAM17
T9 construct: human ADAM17 (Uniprot P78536), amino acids 1–670; made in house; host or cells: insect cells (baculovirus)
T9 sequence (P78536 18-670): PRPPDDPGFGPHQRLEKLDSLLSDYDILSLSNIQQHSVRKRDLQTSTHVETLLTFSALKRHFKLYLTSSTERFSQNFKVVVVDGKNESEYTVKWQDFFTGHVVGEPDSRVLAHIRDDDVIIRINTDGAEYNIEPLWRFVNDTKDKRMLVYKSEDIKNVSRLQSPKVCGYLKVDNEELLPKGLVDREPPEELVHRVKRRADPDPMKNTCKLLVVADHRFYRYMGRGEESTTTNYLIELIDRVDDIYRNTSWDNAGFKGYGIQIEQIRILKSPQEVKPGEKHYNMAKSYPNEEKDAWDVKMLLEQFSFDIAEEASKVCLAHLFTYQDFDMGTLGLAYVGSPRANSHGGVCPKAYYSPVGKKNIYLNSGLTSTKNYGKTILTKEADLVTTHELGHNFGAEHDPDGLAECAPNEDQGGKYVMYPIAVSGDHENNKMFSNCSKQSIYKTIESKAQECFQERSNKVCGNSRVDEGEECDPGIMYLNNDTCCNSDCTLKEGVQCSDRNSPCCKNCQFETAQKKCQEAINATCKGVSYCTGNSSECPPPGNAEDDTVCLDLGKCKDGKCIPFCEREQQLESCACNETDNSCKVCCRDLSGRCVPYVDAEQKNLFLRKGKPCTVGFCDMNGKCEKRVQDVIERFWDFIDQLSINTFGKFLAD
Protocol: as §1, §2

- IC50 (CSN5): 1.1 ± 0.5 µM
- IC50 (Human AMSHLP): > 100 µM
- IC50 (human MMP2): > 100 µM
- IC50 (human MMP8): > 100 µM
- IC50 (human MMP9): > 100 µM
- IC50 (human MMP12): > 100 µM
- IC50 (human MMP13): > 100 µM
- IC50 (human MMP14): > 100 µM
- IC50 (human ADAM17): > 100 µM
SMILES: N#Cc1ccc(C2C(O)CCCc3cncn32)c(-c2ccccc2Cl)c1 (stereo not drawn) [CSN5i-1b]

Reference: paper PMC5078989, “Targeted inhibition of the COP9 signalosome for treatment of cancer” (Nature Communications, 2016)
